Series [1] has as its system capsaicin-induced allodynia in Sprague-Dawley rats. Put plainly: Capsaicin model, tactile allodynia (von Frey filament). The series is classed as in vivo, rat. As to the method: Intraplantar injection of capsaicin, the active ingredient in red hot chili peppers, will induce neurogenic inflammation and transient allodynia.
Methods/subjects: Eight to ten male Sprague-Dawley rats (Charle Rivers, Sprague-Dawley, 200-300 grams) were used in these experiments. Rats received a unitlateral intradermal injection (10 ul) of capsaicin (0.1%) superficially in the mid-plantar surface of the hind paw. A successful injection was confirmed by the apperance of a bleb after intraplantar capsaicin administartion. Capsaicin, the pungent ingredient in hot peppers, has been used to produce hyperalgesia (mildly painful sensory stimuli are perceived as highly painful) in humans. When applied topically or injected into the skin, capsaicin produces burning pain, hyperalgesia to heat within the immediate vicinity of capsaicin application, and mechanical hyperalgesia within a large sorrounding (Hohmann AG, et al.). On the rat hind paw, there are no major subjective behaviour or clinical observations such as marked redness, limping, chronic licking and swelling associated with this model except for the immediate bleb formation of the given agent on the plantar surface right after the injection and as reported in the literature, short term tactile allodynia, extreme thermal […] which persist for one week.
Allodynia Assessment: Rats were placed in Plexiglas cages positioned over an elevated wire mesh platform and habituated to the testing environment for 15 to 25 min before testing. Tactile allodynia was assessed using a single von frey filament (5.18) with a bending force of 10 grams (Dixon). Tactile allodynia refers to a nocifensive behavior elicited by a light touch or innocuous (here, mechanical) stimulus and was operationally defined as a lowering of the threshold for paw withdrawal from punctate mechanical stimulation (Hohmann AG, et al.). The filaments were positioned in contact with the hind paw for a duration of 5 s or until a withdrawal response occurred and repeated 10 consecutive times. This procedure was repeated three times to obtain a total of thirty responses and then averaged. Contralateral testing was also done; no capsaicin was given. Data are presented as paw withdrawl frequency (%). * indicates significant difference (P<0.05) relative to vehicle-treated rats.

In series [2] the test system is ryanodine receptor-channel complex. To be noted: See Biochemistry 2001, 40, 531-542; cited from earlier work.
The test system of series [3] is phenylephrine-induced allodynia in mice. Put plainly: Phenylephrine model of transient allodynia. The series is classed as in vivo. The conditions noted are these: maximum score 16. As to the method:
(§1) In mice, it is possible to induce transient allodynia by treating mice with chemical sensitizers. An interperitoneal injection (of a 1 ml/kg volume) of phenylephrine (an alphal receptor agonist) or sulprostone (a EP1 and EP3 prostaglandin receptor agonist) will induce transient allodynia. Alternatively, an intrathecal injection of NMDA (in a 5 ul volume) will also induce transient allodynia. The injected mice are assessed for allodynia once every 5 minutes over a 15-50 min period post injection by light stroking of the flank with a paintbrush. The allodynia response was ranked as follows: 0. No response; 1, mild squeaking with attempts to move away from the paintbrush; 2, vigorous squeaking, biting at the paintbrush and strong efforts to escape. Data is expressed as the average total score for each group. (Each animal can have a maximum score of 16 over the 50-min period.) * indicates significant difference (P<0.05) relative to sulprostone, NMDA or phenylephrine-treated rats.

Series [4] concerns Sprague-Dawley rats. Put plainly: Activity monitor (locomotor activity). The conditions noted are these: 10 mg/kg intraperitoneal, thirty minutes after injection. The series is classed as in vivo, rat. As to the method:
Locomotor activity of male Sprague-Dawley rats (Charles River, Wilmington, Mass.) weighing approximately 300 grams was measured thirty minutes following intraperitoneal injection of vehicle or test compound. Test animals were placed in a dark chamber and a Digicom analyzer (Omnitech Electronic, Columbus, Ohio), which records the number of interruptions of an array of 32 photoelectric beams in the X and Y orientation, quantitated exploratory behavior during a five-minute period. Horizonal activity (HD) and total distance (TD) are presented, as well as % vehicle values. * indicates significant difference (P<0.05) relative to vehicle-treated rats.

In series [5] the test system is sulprostone-induced allodynia in mice. Put plainly: Sulprostone model of transient allodynia. Format: in vivo. As to the method: as §1
Series [6] has as its system rats with ligated L5 and L6 spinal nerves. As to the kind of experiment: Spinal nerve (L5/L6) ligation model of chronic pain, tactile allodynia by von Frey hairs. The series is classed as in vivo, rat. The conditions noted are these: compared to a saline solution, 30 minutes after drug administration.
In series [7] the test system is rats. As to the kind of experiment: Rotarod motor performance. Format: in vivo, rat. To be noted: fifteen minutes post-dosing, acceleration mode 5-15 RPM, in s (unit assumed). From the text:
The Rotamex® 4/8 Rota-rod is a device to test the motor performance decrement, performance time, partial or complete ataxia, and the motor coordination in laboratory animals. The principle of this system is to measure the time each animal manages to maintain walking on the moving rod. Drugs or conditions that cause muscular relaxation will interfere with this coordination and agility, causing the animal to fall from a safe height to a grid below.
The animals were conditioned before performing the test. Animals were required to pass three stages of conditioning on the Rota-rod prior to inclusion in the experiment. During the first stage of conditioning, animals were required to perch on the stationary rod for 30 seconds to accustom themselves to the environment.
Rats that fail to perch for 30 seconds will fall to the grid below. The fall alone typically serves as an adequate aversive stimulus and the animals learn to stay on the perch.
In the second stage of conditioning, the animals that passed the first stage of conditioning were then allowed to walk at a constant speed of 5-rpm for 90 seconds. Any animal that fell off the rod during this trial were allowed to fall to the grid below. Animals are required to stay on the rod for 90 seconds in three consecutive trials out of six total trials, or else they were excluded from the study.
In the final stage of conditioning, about 10-30 minutes after the last trial for each animal that passed the first two stages of conditioning, the animals were placed back on the rod in groups of four and allowed to run in an acceleration mode with a start speed of 5 rpm and an end speed of 15 rpm for 90 seconds. […] A mean performance time was calculated for all animals that managed to stay on the rotating rod for at least 80 seconds. […] Mean performance times were calculated and used as pre-drug baseline values. […] Fifteen minutes post-dosing, the animals were placed back on the rod and the mean performance time in acceleration mode (5-15 RPM) is measured again. […]

Series [8] deals with NMDA-induced allodynia in mice. Put plainly: NMDA model of transient allodynia. Format: in vivo. The conditions noted are these: maximum score 16. As to the method:
as §1

Marks after values point to notes of the source that are not given here.

For the molecule `O=C1CN(N=Cc2ccc(-c3ccc([N+](=O)[O-])cc3)o2)C(=O)N1` [Dantrolene, 1-[[5-(p-Nitrophenyl)furfurylidene]amino]hydantoin], the paw withdrawl frequency was 36 ± 3.7% in series [1] (Injected paw, 15 min after capsaicin, dantrolene 3 mg/kg IP 30 minutes before capsaicin); 8 ± 1.7 * % in series [1] (Injected paw, 30 min after capsaicin, dantrolene 3 mg/kg IP 30 minutes before capsaicin); 7 ± 2.1% in series [1] (Injected paw, 60 min after capsaicin, dantrolene 3 mg/kg IP 30 minutes before capsaicin); 7 ± 0.9% in series [1] (Injected paw, Baseline before Caps., dantrolene 3 mg/kg IP); 5 ± 1.1% in series [1] (Uninjected paw, 15 min., dantrolene 3 mg/kg IP); 2 ± 1.1% in series [1] (Uninjected paw, 30 min., dantrolene 3 mg/kg IP). Further, the paw withdrawl frequency in series [1] (Uninjected paw, 60 min., dantrolene 3 mg/kg IP) is 3 ± 1.3%; in series [1] (Uninjected paw, Baseline, dantrolene 3 mg/kg IP), 5 ± 1%. The “action on ryanodine receptor-channel complex” value in series [2] is given as “antagonist of the ryanodine receptor-channel complex”. For the same molecule, the Mean pain score is listed as 9.4 ± 1.6 in series [3] (PE 100 ng/kg + Dantrolene 3 mg/kg); 6.5 ± 1.2* in series [3] (PE 100 ng/kg + Dantrolene 10 mg/kg); 12.6 ± 1.5 in series [5] (Sulprostone 300 ng/kg + Dantrolene 3 mg/kg, maximum score 16); 9.5 ± 1.9* in series [5] (Sulprostone 300 ng/kg + Dantrolene 10 mg/kg, maximum score 16); 4.8 ± 0.9* in series [5] (Sulprostone 300 ng/kg + Dantrolene 20 mg/kg, maximum score 16); 9.3 ± 0.8* in series [8] (NMDA 100 ng + Dantrolene 3 mg/kg). The Mean pain score in series [8] (NMDA 100 ng + Dantrolene 10 mg/kg) was 7.0 ± 1.0*. In series [4], the HA % vehicle was 82.4%. In series [4], this molecule yielded a TD % vehicle of 59.4%. For the same molecule, in series [4] (five-minute period), the “HA (horizontal activity)” value came out at 1125.6 ± 114.5. Moreover, the “TD (total distance)” value in series [4] (five-minute period) came to 290 ± 48.4. The “reversal of allodynic pain (tactile allodynia)” value in series [6] (i.p. 300 ng/kg), in series [6] (i.p. 3000 ng/kg), in series [6] (i.p. 100 mg/kg) and in series [6] (i.p. dose of 100 ng/kg) was “reverses the allodynic pain” in each case. The figures for the “Mean time on bar” value in series [7] (3 mg/kg IP), in series [7] (10 mg/kg IP) and in series [7] (20 mg/kg IP) were 74.33 ± 7.47, 79.67 ± 5.43 and 37.67 ± 10.4*, respectively.
In turn, `CNC[C@H](O)c1cccc(O)c1` [PE, phenylephrine] registered a Mean pain score in series [3] (PE 100 ng/kg alone) of 11.3 ± 0.9.
In series [5] (Sulprostone (I.P) 300 ng/kg alone, total score, maximum 16), `CS(=O)(=O)NC(=O)CCC/C=C\C[C@H]1C(=O)C[C@@H](O)[C@@H]1/C=C/[C@@H](O)COc1ccccc1` [Sulprostone] registered a Mean pain score of 14.0 ± 0.5.
With `CN[C@H](CC(=O)O)C(=O)O` [NMDA], the Mean pain score in series [8] (NMDA 100 ng intrathecal alone) is on record as 14.2 ± 1.1.

These data come from patent publication US20070066638A1, “RYANODINE RECEPTOR BLOCKERS FOR TREATING PAIN” (priority 2005, published 2007).
